These results are taken from patent US20150335634A1, “ISOQUINOLINE ALKALOID DERIVATIVE FOR ACTIVATING AMP-DEPENDENT PROTEIN KINASE” (ZIH YUAN TANG Biotechnology Co., Ltd, priority 2014, published 2015).

In experiment [1] the test system is AMP-dependent protein kinase (AMPK). In words: AMPK phosphorylation (Phospho-AMPKα Thr172 Western blot) in C2C12 myocytes. The experiment is classed as cell-based, mice. The method, then:
C2C12 skeletal myoblast cell line was purchased from the Food Industry Research and Development Institute (Hsinchu, Taiwan). The C2C12 cell line was a cell line obtained from culturing the leg skeletal muscle of adult C3H mice in a cell incubator under 95% […], 5% CO2, and 37° C. The cells were cultured in a DMEM medium (Gibco/Invitrogen, Carlsbad, Calif.) containing 4.5 mg/mL glucose, 10% fetal bovine serum (FBS; Gibco/Invitrogen, Carlsbad, Calif.), and an antibiotic solution (with final concentrations of penicillin=100 IU/mL and streptomycin=100 μg/mL). When the C2C12 myoblast cells have proliferated to cover seven-tenths of the area in the petri dish, the fetal bovine serum was replaced by 2% horse serum (Gibco/Invitrogen, Carlsbad, Calif.) so as to induce the C2C12 myoblast cells to become the multi-nuclei myocytes. The C2C12 myoblast cells differentiated into myocytes in 4 days, and the culture medium of the cells was replaced with no-serum DMEM 24 hours before the experiments so as to reduce metabolism of the cells.
The C2C12 myocytes were treated respectively with 1 μM, 3 μM and 10 μM salsolinol and reticuline for 5 and 15 minutes. Then the C2C12 myocytes were rinsed with PBS buffer solution, and RIPA buffer solution containing protease inhibitors (20 mM Tris-HCl (pH 7.4), 100 mM NaCl, 1 mM EDTA, 1 mM EGTA, 0.1% SDS, 0.5% sodium deoxycholate, 1% NP-40, and 100X protease inhibitor cocktail) was added into the cells. The cells were collected and centrifuged on ice. Then, the concentrations of the supernatant samples were adjusted to be the same.
The supernatant samples were put through vertical electrophoresis isolation with 8% SDS-PAGE, and the isolated proteins were transferred onto a PVDF blotting membrane. After blotting was completed, the PVDF blotting membrane was removed and blocked for 1 hour under room temperature with a blocking buffer of TBST (Tris-buffered saline with Tween-20) with 5% non-fat milk. Then, the PVDF blotting membrane was placed into a 5% BSA and TBST solution containing the primary monoclonal antibodies Phospho-AMPKα (Thr172) (Cell Signaling) (1:1000) and AMPKα […] (Cell Signaling) (1:1000), respectively, and the primary immunoblotting reaction was performed under 4° C. Then, the PVDF blotting membrane was rinsed 3 times with TBST, and a TBST solution containing the secondary antibody goat anti-rabbit IgG (Perkin Elmer) (1:10000) was added to perform the secondary reaction for one hour under room temperature. Finally, the membrane was rinsed 3 times with TBST before ECL (enhanced chemiluminescence) was added to present color.

For the next experiment, the system named is insulin secretion. The experiment is described as follows: effect on insulin secretion compared with Glibenclamide. The settings on record: as opposed to Glibenclamide.
Experiment [2] has as its system ICR mice with Type II diabetes induced by high-sugar high-lipid food. The experiment is described as follows: oral glucose tolerance test (OGTT) in ICR mice fed with high-lipid food and high fructose syrup. It is filed as in vivo. The protocol:
ICR mice were each fed with high-lipid food and high fructose syrup for 2 weeks. Then, salsolinol (10 mg/Kg/day) and Glibenclamide (10 mg/Kg) were administered on day 1. After 30 minutes, glucose (1 g/Kg) was orally administered and blood was taken from the mice immediately thereafter (this time point was designated as 0 minute). Blood was also taken later at 30, 60, 90, 120 and 150 minutes, and the blood glucose levels in the serum were determined
ICR mice were each fed with high-lipid food and high fructose syrup for 2 weeks, and then administered with salsolinol (10 mg/Kg/day) and Glibenclamide (10 mg/Kg) for 14 consecutive days. Afterwards, salsolinol (10 mg/Kg/day) and Glibenclamide (10 mg/Kg) were again administered, and glucose (1 g/Kg) was orally administered after 30 minutes and blood was taken from the mice immediately thereafter (this time point was designated as 0 minute). Blood was also taken later at 30, 60, 90, 120 and 150 minutes, and the blood glucose levels in the serum were determined.
The effect of blood glucose reduction was evaluated with the oral glucose tolerance test (OGTT). […] Blood was also taken later at 30, 60, 90, 120 and 150 minutes, and the blood glucose levels in the serum were determined after centrifugation.

Molecules are shown by their SMILES.

For `COc1ccc(C[C@H]2c3cc(O)c(OC)cc3CCN2C)cc1O` [reticuline], the “AMPK phosphorylation relative to control cells” value in experiment [1] (3 μM, treated for 5 minutes) is on record as 1.52 times of that in the control cells; in experiment [1] (3 μM, treated for 15 minutes), 1.04 times of that in the control cells; in experiment [1] (10 μM, treated for 5 minutes) it was 2.05 times of that in the control cells; in experiment [1] (10 μM, treated for 15 minutes), 2.07 times of that in the control cells.

For `CC1NCCc2cc(O)c(O)cc21` (centres unmarked) [salsolinol], in the experiment with insulin secretion, the “effect on insulin secretion” value is reported as “lower effect on insulin secretion”. Also, the “AMPK phosphorylation relative to control cells” value in experiment [1] (10 μM, treated for 5 minutes) is reported as 1.66 times of that in the control cells. The “long-term reduction of blood glucose (OGTT)” value in experiment [2] (10 mg/Kg/day for 14 consecutive days, glucose 1 g/Kg orally after 30 minutes, compared with Glibenclamide 10 mg/Kg (FIG. 4)) was “blood glucose-reduction effect similar to that of Glibenclamide”. For the same compound, the “fast reduction of blood glucose (OGTT)” value in experiment [2] (10 mg/Kg/day, administration on day 1, glucose 1 g/Kg orally after 30 minutes, compared with Glibenclamide 10 mg/Kg (FIG. 3)) is “blood glucose-reduction effect similar to that of Glibenclamide”.
